Measured values as given in patent US20060173015A1, “Cyclohexyldiamines as selective alpha 1a/1d adrenoreceptor antagonists for the treatment of benign prostatic hypertrophy and lower urinary tract symptoms” (priority 2004, published 2006).

Key:
[1] = target: T1, α1a-AR (Homo sapiens, UniProt P35348); experiment: α1-Adrenergic receptor radio-ligand (125I-HEAT) binding assay, α1a subtype; conditions: COS-7 cell membranes, 125I-HEAT
T1 construct: expressed in transfected cells; host or cells: COS-7
T1 sequence (P35348 1-466): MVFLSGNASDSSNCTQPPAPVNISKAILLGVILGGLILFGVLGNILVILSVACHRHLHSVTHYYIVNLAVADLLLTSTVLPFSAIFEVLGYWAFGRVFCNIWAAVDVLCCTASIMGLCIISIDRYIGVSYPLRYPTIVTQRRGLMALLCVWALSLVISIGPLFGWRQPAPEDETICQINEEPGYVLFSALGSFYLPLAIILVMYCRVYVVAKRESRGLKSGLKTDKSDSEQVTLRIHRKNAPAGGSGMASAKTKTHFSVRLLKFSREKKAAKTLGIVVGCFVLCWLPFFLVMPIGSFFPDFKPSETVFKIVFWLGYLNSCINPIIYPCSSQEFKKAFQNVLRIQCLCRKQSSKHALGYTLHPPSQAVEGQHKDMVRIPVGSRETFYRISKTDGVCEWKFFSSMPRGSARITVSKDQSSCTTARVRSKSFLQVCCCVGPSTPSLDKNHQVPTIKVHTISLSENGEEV
Protocol: α1-Adrenergic Receptor Binding Assay: Preparation of COS Cell Membranes
Membranes were prepared from COS-7 cells that had been transfected with one of the three α1-AR subtypes by the following method. COS cells from ten 100 mm tissue culture plates were scraped into 5 mL TE (50 mM Tris-HCl, 5 mM EDTA, pH 7.4). The cell suspension was disrupted with a Brinkman Polytron, setting 8, for 10 sec. The disrupted cells were centrifuged at 1000×g for 10 min at 4° C. Supernatants were centrifuged at 34,500×g for 20 min at 4° C. The membrane pellets were suspended in 2 mL TNE (50 mM Tris-HCl, 5 mM EDTA, 150 mM NaCl, pH7.4). An aliquot of the membrane suspension was stored at −70° C. until use. The protein concentration was determined using the BioRad DC protein assay kit following membrane solubilization with Triton X-100.
Radio-Ligand Binding Assay
Triplicate determinations of radio-ligand binding in the presence of increasing: concentrations of testing compound were made. The reagents were added to 96-well polypropylene plate wells using the Biomek 1000 robot (Beckman Instruments). Each assay well contained 140 μl TNE, 25 μL ^125I-HEAT (specific activity 2200 Ci/mmol, Dupont-NEN, 50 pM final), 10 μL testing compound dissolved in DMSO (1 pM to 10 μM in half-log increments, final), and 25 μL appropriate α1-AR membrane subtype suspension in TNE (0.5 ng/μL for the α1a and α1b subtypes and 13 ng/μL for the α1d subtype). The plate was incubated at rt for 1 hr. The contents of the wells were filtered through a GF/C membrane Unifilter plate (Packard Instruments) using the Packard Filtermate cell harvester. The filter plates were dried in a vacuum oven for 30 min at 40° C. 25 μL Microscint 20 liquid scintillation fluid (Packard Instuments) was added to each well. The radioactive content was analyzed in the TopCount microplate scintillation counter (Packard Instruments).

[2] = target: T2, α1d-AR (Homo sapiens, UniProt P25100); experiment: α1-Adrenergic receptor radio-ligand (125I-HEAT) binding assay, α1d subtype; conditions: COS-7 cell membranes, 125I-HEAT; read-out: Receptor Binding, Ki α1d-AR
T2 construct: expressed in transfected cells; host or cells: COS-7
T2 sequence (P25100 1-572): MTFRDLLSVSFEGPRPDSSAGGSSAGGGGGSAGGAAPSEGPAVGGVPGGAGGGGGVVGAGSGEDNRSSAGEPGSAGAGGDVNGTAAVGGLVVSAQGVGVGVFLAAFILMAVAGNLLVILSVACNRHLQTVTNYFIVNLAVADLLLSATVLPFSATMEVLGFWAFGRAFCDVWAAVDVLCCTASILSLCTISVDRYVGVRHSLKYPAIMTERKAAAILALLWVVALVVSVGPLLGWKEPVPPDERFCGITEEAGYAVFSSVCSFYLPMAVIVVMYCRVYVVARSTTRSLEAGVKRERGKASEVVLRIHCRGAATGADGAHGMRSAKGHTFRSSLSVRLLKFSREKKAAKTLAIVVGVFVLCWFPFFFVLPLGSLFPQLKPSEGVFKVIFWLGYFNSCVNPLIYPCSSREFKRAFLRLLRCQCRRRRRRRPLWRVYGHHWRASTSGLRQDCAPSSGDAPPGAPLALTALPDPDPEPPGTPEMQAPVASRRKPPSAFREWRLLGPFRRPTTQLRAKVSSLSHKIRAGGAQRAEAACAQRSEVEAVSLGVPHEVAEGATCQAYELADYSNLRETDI

[3] = target: T3, α1b-AR (Homo sapiens, UniProt P35368); experiment: α1-Adrenergic receptor radio-ligand (125I-HEAT) binding assay, α1b subtype; conditions: Receptor Binding, Ki α1b-AR, COS-7 cell membranes, 125I-HEAT
T3 sequence (P35368 1-520): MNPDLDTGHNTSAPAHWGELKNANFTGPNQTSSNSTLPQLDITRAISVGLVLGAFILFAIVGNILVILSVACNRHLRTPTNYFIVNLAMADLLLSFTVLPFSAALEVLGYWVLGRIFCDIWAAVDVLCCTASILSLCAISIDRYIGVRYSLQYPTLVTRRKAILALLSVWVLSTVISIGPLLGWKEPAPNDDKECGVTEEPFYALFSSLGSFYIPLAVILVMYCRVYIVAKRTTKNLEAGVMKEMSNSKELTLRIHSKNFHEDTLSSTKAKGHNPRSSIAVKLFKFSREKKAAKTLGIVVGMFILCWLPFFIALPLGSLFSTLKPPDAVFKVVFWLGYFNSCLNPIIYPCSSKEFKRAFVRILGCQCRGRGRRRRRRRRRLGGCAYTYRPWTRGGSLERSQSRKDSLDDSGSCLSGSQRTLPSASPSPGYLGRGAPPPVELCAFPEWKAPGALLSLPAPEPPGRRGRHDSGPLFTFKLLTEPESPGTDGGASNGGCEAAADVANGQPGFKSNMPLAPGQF

SMILES | Ki [1] [nM] | Ki [2] [nM] | Ki [3] [nM]
CC(C)Oc1ccccc1N1CCN([C@H]2CC[C@H](NS(=O)(=O)c3ccc(Cl)cc3Cl)CC2)CC1 [Cpd 29, 2,4-Dichloro-N-trans-{4-[4-(2-isopropoxy-phenyl)-piperazine-1-yl]-cyclohexyl}-benzenesulfonamide] | 1.6 | 8.6 | 596
COc1ccc(S(=O)(=O)N[C@H]2CC[C@H](N3CCN(c4cc(F)ccc4OCC(F)(F)F)CC3)CC2)cc1OC [Cpd 84, N-trans-(4-{4-[5-Fluoro-2-(2,2,2-trifluoro-ethoxy)-phenyl]-piperazin-1-yl}-cyclohexyl)-3,4-dimethoxy-benzenesulfonamide] | 33 | 36.1 | 220
COc1ccc(Cl)cc1S(=O)(=O)N[C@H]1CC[C@@H](N2CCN(c3ccc(F)cc3OCC(F)(F)F)CC2)CC1 [Cpd 76, 5-Chloro-N-cis-(4-{4-[4-fluoro-2-(2,2,2-trifluoro-ethoxy)-phenyl]-piperazin-1-yl}-cyclohexyl)-2-methoxy-benzenesulfonamide] | 17 | 8.5 | 196
COc1ccc(S(=O)(=O)N[C@H]2CC[C@H](N3CCN(c4ccc(F)cc4OCC(F)(F)F)CC3)CC2)cc1OC [Cpd 80, N-trans-(4-{4-[4-Fluoro-2-(2,2,2-trifluoro-ethoxy)-phenyl]-piperazin-1-yl}-cyclohexyl)-3,4-dimethoxy-benzenesulfonamide] | 21 | 38 | 87
COc1ccc([N+](=O)[O-])cc1S(=O)(=O)N[C@H]1CC[C@@H](N2CCN(c3ccccc3OC(C)C)CC2)CC1 [Cpd 19, N-cis-{4-[4-(2-Isopropoxy-phenyl)-piperazin-1-yl]-cyclohexyl}-2-methoxy-5-nitro-benzenesulfonamide] | 4.3 | 2.2 | 85.3
COc1ccc([N+](=O)[O-])cc1S(=O)(=O)N[C@H]1CC[C@H](N2CCN(c3ccccc3OC(C)C)CC2)CC1 [Cpd 47, N-trans-{4-[4-(2-Isopropoxy-phenyl)-piperazin-1-yl]-cyclohexyl}-2-methoxy-5-nitro-benzenesulfonamide] | 1 | 22 | 173
CC(C)Oc1ccccc1N1CCN([C@H]2CC[C@@H](NS(=O)(=O)c3ccc(F)cc3)CC2)CC1 [Cpd 10, 4-Fluoro-N-cis-{4-[4-(2-isopropoxy-phenyl)-piperazin-1-yl]-cyclohexyl}-benzenesulfonamide] | 5.6 | 4.8 | 150
CC(C)Oc1ccccc1N1CCN([C@H]2CC[C@H](NS(=O)(=O)c3ccc(OC(F)(F)F)cc3)CC2)CC1 [Cpd 45, N-trans-{4-[4-(2-Isopropoxy-phenyl)-piperazin-1-yl]-cyclohexyl}-4-trifluoromethoxy-benzenesulfonamide] | 100 | 111 | 1250
CC(C)Oc1ccccc1N1CCN([C@H]2CC[C@@H](NS(=O)(=O)c3ccc(F)c(Cl)c3)CC2)CC1 [Cpd 14, 3-Chloro-4-fluoro-N-cis-{4-[4-(2-isopropoxy-phenyl)-piperazin-1-yl]-cyclohexyl}-benzenesulfonamide] | 11.6 | 4.3 | 246
O=S(=O)(N[C@H]1CC[C@H](N2CCN(c3ccc(F)cc3OCC(F)(F)F)CC2)CC1)c1cc(Cl)ccc1F [Cpd 82, 5-Chloro-2-fluoro-N-trans-(4-{4-[4-fluoro-2-(2,2,2-trifluoro-ethoxy)-phenyl]-piperazin-1-yl}-cyclohexyl)-benzenesulfonamide] | 52 | 240 | 442
Cc1ccc(S(=O)(=O)N[C@H]2CC[C@@H](N3CCN(c4ccccc4OC(C)C)CC3)CC2)cc1Cl [Cpd 18, 3-Chloro-N-cis-{4-[4-(2-isopropoxy-phenyl)-piperazin-1-yl]-cyclohexyl}-4-methyl-benzenesulfonamide] | 10.5 | 11.1 | 167
COc1ccc(S(=O)(=O)N[C@H]2CC[C@H](N3CCN(c4ccccc4OCC(F)(F)F)CC3)CC2)cc1OC [Cpd 70] | 54.2 | 8.3 | 34.8
CC(C)Oc1ccccc1N1CCN([C@H]2CC[C@@H](NS(=O)(=O)c3cc(Cl)ccc3F)CC2)CC1 [Cpd 12, 5-Chloro-2-fluoro-N-cis-{4-[4-(2-isopropoxy-phenyl)-piperazin-1-yl]-cyclohexyl}-benzenesulfonamide] | 3.8 | 0.4 | 66
CC(C)Oc1ccccc1N1CCN([C@H]2CC[C@H](NS(=O)(=O)c3ccccc3C(F)(F)F)CC2)CC1 [Cpd 41, N-trans-{4-[4-(2-Isopropoxy-phenyl)-piperazin-1-yl]-cyclohexyl}-2-trifluoromethyl-benzenesulfonamide] | 18.1 | 246 | 844
COc1ccc(Cl)cc1S(=O)(=O)N[C@H]1CC[C@H](N2CCN(c3ccc(F)cc3OCC(F)(F)F)CC2)CC1 [Cpd 81, 5-Chloro-N-trans-(4-{4-[4-fluoro-2-(2,2,2-trifluoro-ethoxy)-phenyl]-piperazin-1-yl}-cyclohexyl)-2-methoxy-benzenesulfonamide] | 34 | 51 | 90
COc1ccc(C)cc1S(=O)(=O)N[C@H]1CC[C@H](N2CCN(c3ccccc3OC(C)C)CC2)CC1 [Cpd 32, N-trans-{4-[4-(2-Isopropoxy-phenyl)-piperazin-1-yl]-cyclohexyl}-2-methoxy-5-methyl-benzenesulfonamide] | 0.9 | 31 | 218
CC(C)Oc1ccccc1N1CCN([C@H]2CC[C@H](NS(=O)(=O)c3cccc4cccnc34)CC2)CC1 [Cpd 63, Quinoline-8-sulfonic acid N-trans-{4-[4-(2-isopropoxy-phenyl)-piperazin-1-yl]-cyclohexyl}-amide] | 0.5 | 22.1 | 77.6
COc1ccc(C)cc1S(=O)(=O)N[C@H]1CC[C@@H](N2CCN(c3ccccc3OC(C)C)CC2)CC1 [Cpd 4, N-cis-{4-[4-(2-Isopropoxy-phenyl)-piperazin-1-yl]-cyclohexyl}-2-methoxy-5-methyl-benzenesulfonamide] | 4.6 | 3.8 | 141
